Measurements as given in US11981921B2, “TIL expansion processes using specific cytokine combinations and/or AKTi treatment” (Iovance Biotherapeutics, Inc., priority 2022, dated 2024).
Like-named read-outs stand apart in the source and are kept apart here.

Columns and labels:
TIL = test: AKT inhibition during ex vivo TIL expansion (REP); format: cell-based
Experimental: Patient tumors from different indications were received, fragmented, and subjected to an expansion protocol for TIL manufacturing. Different doses (0.3 μM and 1 μM) of the pan-AKT inhibitor (AKTi) ipatasertib were added to the culture during ex vivo expansion. The expansion potential, as well as the phenotypic and functional characteristics of TIL were evaluated on the final TIL product.

TILs [1] = system: TILs
Excerpt: (§1) The overarching goal of these experiments is to examine the growth conditions during the whole expansion process of TILs to augment their stem-like attributes while improving their functional and phenotypic characteristics.
Pre-REP TILs from 3 different indications were thawed and REPped in a G-REX 24 well plate. Cytokines were given twice (Day 0 and Day 5 of pre-REP). The following conditions were included in the REP protocol used in 24-well G-Rex plates: • 1) Feeder:TIL ratio 250:1 with 5 million feeders and 20,000 TILs per well, OKT3 at 30 ng/mL, • 2) On day 0 the REP is initiated with 3 mL of CM2 with cytokines and compounds, • 3) On day five 5 mL of CM4 media was added to each well, • 4) All cytokines and compounds are added twice on day 0 and day 5.

TILs [2] = details: 1 or 2 uM given once or twice, with IL-2 1000 IU/ml + IL-21 10 ng/ml
Excerpt: as §1
Frozen pre-REP TILs were thawed and REPed under different conditions in 24-well GREX plates. […] Pre-REP TILs from 3 different indications were thawed and REPped in a G-REX 24 well plate. The following conditions were included in the REP protocol used in 24-well G-Rex plates: • 1) Feeder:TIL ratio 250:1 with 5 million feeders and 20,000 TILs per well, OKT3 at 30 ng/mL, • 2) On day 0 the REP is initiated with 3 mL of CM2 with cytokines and compounds, • 3) On day five 5 mL of CM4 media was added to each well, • 4) All cytokines and compounds are added twice on day 0 and day 5.

KILR® THP-1 cells = test: TIL cytotoxicity in coculture with KILR THP-1 cells; format: cell-based; details: 24 hrs coculture, 10:1, Invigo-T process
Experimental: TILs were then tested for cytotoxicity in an allogeneic environment after coculture for 24 hrs with KILR® THP-1 cells at a 10:1 effector-to-target cell. […] TILs were next stimulated every 3 days with TransAct followed by coculture for 24 hrs with KILR® THP-1 cells before being assessed for cytotoxicity and IFNg expression (as measured byflow cytometry staining).

TILs [3] = test: Evaluation of I-TIL process conditions (pre-REP and REP, 18 tumors); format: cell-based
Experimental: Tumors (N=18) were received and processed for both pre-REP and REP expansion to test and select a preferred set of conditions, nominated as the final I-TIL (invigorated TIL) conditions.
Cytokines were added twice on Day 0 and Day 5 of pre-REP.
Pre-REP cells were then frozen until all pre-REP samples were generated in order to initiate the REP together at the same time. Frozen pre-REP TILs were thawed and rested overnight in their corresponding conditions followed by REP in 24-well G-Rex plates. […] Cytokines were added twice on Day 0 and Day 5 and AZD5363 was only added once on Day 0 of REP.

TILs [4] = system: TILs; remark: listed apart in the source
Experimental: This Example describes the evaluation of the effects of IL-21 (10 ng/ml)+ AZD5363 in combination with increasing doses of IL-2 or IL-15 and evaluation of the overall impact on preventing effector differentiation, promoting more stem-like attributes and improving functionality of TILs during REP. The overarching goal of these experiments is to examine the growth conditions during the whole expansion process of TILs to augment their stem-like attributes while improving their functional and phenotypic characteristics.
Frozen pre-REP TILs were thawed and REPed under different conditions in 24-well GREX plates. Cytokines were given twice (Day 0 and Day 5 of pre-REP). Pre-REP TILs from 3 different indications were thawed and REPped in a G-REX 24 well plate. The following conditions were included in the REP protocol used in 24-well G-Rex plates: • 1) Feeder:TIL ratio 250:1 with 5 million feeders and 20,000 TILs per well, OKT3 at 30 ng/mL, • 2) On day 0 the REP is initiated with 3 mL of CM2 with cytokines and compounds, • 3) On day five 5 mL of CM4 media was added to each well, • 4) All cytokines and compounds are added twice on day 0 and day 5. The following conditions were tested: IL-2 3000 IU/mL, IL-2 2000 IU/mL, IL-2 1000 IU/mL, IL-2 3000 IU/mL+IL-21 10 ng/ml, IL-2 2000 IU/mL+IL-21 10 ng/ml, IL-2 1000 IU/mL+IL-21 10 ng/ml, IL-2 3000 IU/mL+IL-21 10 ng/ml+2 uM AZD5363 (added once), IL-2 2000 IU/mL+IL-21 10 ng/ml+2 uM AZD5363 (added once), IL-2 1000 IU/mL+IL-21 10 ng/ml+2 uM AZD5363 (added once), and IL-15 10 ng/ml+IL-21 10 ng/ml+1 uM AZD5363 (added twice).

[5] = AKTi treatment during ex vivo expansion
[6] = with IL-15 10 ng/ml + IL-21 10 ng/ml

Molecule: CC(C)NC[C@@H](C(=O)N1CCN(c2ncnc3c2[C@H](C)C[C@H]3O)CC1)c1ccc(Cl)cc1 [AKTi, ipatasertib]
- expansion and viability of TIL (TIL; 1 μM dose, relative to control): equivalent
- population of less differentiated CD39−CD69− cells (TIL; 1 μM dose, relative to control, present even after re-stimulation): doubled
- cytotoxicity of TIL (TIL; [5]): increased cytotoxicity
- frequency of IFNγ+TNFα+CD8+ T cells (TIL; [5]): increase
- expression of CD38 and transcription factors T-bet and Tox (TIL; CD39−CD69− cells after re-stimulation): reduced expression

Molecule: AZD5363
- effector differentiation, stem-like phenotype, functional responses, inhibitory receptor expression (TILs [1]; [6]): induces many of the desired changes
- effects on increasing IFNg, TNFa and IL-2 (TILs [1]; with IL-15 + IL-21, vs IL-2 1000 IU/ml and IL-21 10 ng/ml): more pronounced
- phenotypic changes on TILs (inhibitory receptors, activation, stem-like qualities, functionality) (TILs [2]): further beneficial phenotypic changes
- cytotoxicity with or without AZD5363 (KILR® THP-1 cells): no significant difference
- effector differentiation, stem-like phenotype, functional responses, inhibitory receptor expression (TILs [3]; 2 uM once on Day 0 of REP, with IL-15 10 ng/ml + IL-21 10 ng/ml): induces many of the desired changes
- effects on increasing IFNg, TNFa and IL-2 (TILs [3]; with IL-15 + IL-21, vs IL-2 1000 IU/ml + IL-21 10 ng/ml + AZD5363): more pronounced
- effector differentiation, stem-like phenotype, functional responses, inhibitory receptor expression (TILs [4]; 2 uM given once, with IL-2 1000 IU/ml + IL-21 10 ng/ml): induces many of the desired changes
- activation state of TILs (TILs [4]; IL-15 combination): further reduced
- effects on cytokine production, in particular IL-2 (TILs [4]; [6]): quite significant
- same effects with IL-15 instead of IL-2 (TILs [4]; with IL-15 10 ng/ml + IL-21 10 ng/ml, vs IL-2 combination): comparable

Molecule: IL-15: cytokine used at 10 ng/ml with IL-21 during REP
- yield and viability of the process (TILs [3]; IL-15 conditions): significantly augmented
